Data on 16 molecules can be found in patent US20250230226A1, “PLXDC1/PLXDC2 ACTIVATORS AND THEIR USE IN THE TREATMENT OF BLOOD VESSEL DISORDERS” (THE REGENTS OF THE UNIVERSITY OF CALIFORNIA, priority 2019, published 2025).

The test system of this test is LL/2 lung cancer tumor endothelial cells. Briefly: Lung LL2 ex vivo model of tumor angiogenesis. Type of test: cell-based, mouse. Particulars: for 48 hrs (morphology observations): LL/2 tumor endothelial cells; for Cell death: drug treatment for two days, ratio of red area to total endothelial cell area; for cytotoxicity at 40 µM: Mus musculus, Endothelial cell, 48 h, read-out: Cell death. The procedure: An ex vivo tumor angiogenesis model was developed to test the efficacy of anti-cancer candidate agents. The following protocol describes the Ex Vivo Tumor Angiogenesis Model.
• 1. The day before the experiment, all necessary tools were sprayed with 70% ethanol and sterilized under UV light overnight, including blade, dissecting and micro-dissecting scissors and […]. 24-well dishes were placed at 4° C. to pre-chill plates and Matrigel was thawed, 24 hours before tumor dissection. • 2. 70% ethanol was sprayed on working bench. Two sterile petri dishes were prepared with 10 ml sterile PBS. The following steps 3 and 4 are necessary for mouse tumor models. For fresh human tumor, steps 3 and 4 are skipped. • 3. The tumor-bearing mice were euthanized. 70% ethanol was sprayed on the mouse and the tumor was removed using sterilized dissecting tools (avoid the fur). The tumor was rinsed in petri dish with sterile PBS to remove ethanol and fur. The tumor was transferred to a new petri dish with PBS for dissection. The dish is placed on ice. • 4. Pre-chilled sterile pipet tips were used to seed regular Matrigel in 24 well plates on ice. Matrigel (30 μl) was dropped in the middle of each well without touching the edge of the well (avoid introducing bubbles if possible). • 5. The tumor was cut in halves using the sterile blade. Healthy tumor tissue that is not necrotic and is within the tumor capsule was identified and isolated. The healthy tumor tissue was cut into small pieces. For instance, a suitable size for the tumor tissue is 0.5 mm (H)×0.5 mm (L)×0.3 mm (D) with a total volume of 0.075 mm^3. • 6. Each tumor piece was gently transferred and embedded in the Matrigel drop in the 24-well plate. The embedded piece was placed in the bottom and middle of each Matrigel drop. The plate was kept on ice all the time. • 7. After seeding the tumor pieces, plates were incubated in a 37° C. cell culture incubator without medium for 10 minutes in order for the Matrigel to solidify. • 8. Endothelial Growth Medium (0.5 ml) was added to each well and incubated at 37° C. with 5% CO2. Treatment was not added until the new endothelial cells was grown out of the tumor or were larger than 3 mm in diameter. This usually takes 4 days for the LL2 Lewis lung cancer model and 7 days for the CT26 colon cancer model. For human tumor models, the growth time is typically 2-3 weeks, depending on the tumor type. Media was changed every 4 days during prolonged culture. Typically, when the tumor tissue grows to 2 mm in diameter, it was good for drug testing. A size of about 3 mm in diameter can make visualization easier. • 9. When the assay was ready to be analyzed for cell death (e.g., 48 hours after drug addition), the dye mixture was prepared by mixing 6 μl of green dye to stain live cells (5 mg/ml Fluorescein diacetate or FDA in DMSO) with 30 μl of red dye (2.5 mg/ml Propidium iodide or PI in PBS) to stain dead cells in an Eppendorf tube. The FDA dye needs to be stored frozen in a −20° C. freezer because it has a labile ester bond. • 10. 1 μl of the dye mixture was added to each well of the 24-well dish. It is usually preferred to do one 24-well dish at a time given the amount of time needed to take pictures (the green dye is not as stable in the cells in the long term). • 11. The dish was gently rocked a few times to mix the dye with the media in the wells and incubate the dish at 37° C. for 10 min (too long incubation can make the green signal too intense). • 12. Each well was washed with 0.5 ml of sterile PBS and then 0.5 ml of phenol red free SFM was added to each well. Alternatively 0.5 ml of regular Endothelial Cell Growth Media can be added to each well if this well needs to be continuously maintained after the experiment. • 13. An inverted microscope using the 2× objective lens was used to observe morphological changes in the experimental wells. • 14. […]

`CCOC(=O)c1ccc2ncc(S(=O)(=O)c3ccc(OC)cc3)c(N3CCCN(CCN4CCCCC4)CC3)c2c1` [Compound 179]: where the note is “10 μm”, the “48 hrs (morphology observations)” value was “*** (more than 50% but less than 100% of endothelial cells vesicularize in cell shape)” and the Cell death is listed as 60%.

As to `CCOC(=O)c1ccc2ncc(S(=O)(=O)c3ccc(OC)cc3)c(N3CCCN(CCN4CCCC4)CC3)c2c1` [Compound 180], under “10 μm”, the “48 hrs (morphology observations)” value is “*** (more than 50% but less than 100% of endothelial cells vesicularize in cell shape)” and the Cell death is 70%.

For the molecule `CCCCOc1ccc(S(=O)(=O)c2cnc3ccc(C(=O)OCC)cc3c2N2CCCN(CCN3CCCCC3)CC2)cc1` [Compound 181], under “40 μm”, the “48 hrs (morphology observations)” value is “**** (100% of endothelial cells vesicularize in cell shape and look flattened in morphology (indicating disintegration of the cell body))”; the Cell death is reported as 100%.

As for `CCCCOc1ccc(S(=O)(=O)c2cnc3ccc(C(=O)OCC)cc3c2N2CCCN(CCN3CCCC3)CC2)cc1` [Compound 182], under “40 μm”, the “48 hrs (morphology observations)” value is “**** (100% of endothelial cells vesicularize in cell shape and look flattened in morphology (indicating disintegration of the cell body))”; the Cell death is given as 100%.

As to `CCOC(=O)c1ccc2ncc(S(=O)(=O)c3ccc(OC)cc3)c(-n3cncn3)c2c1` [Compound 183], under “10 μm”, the “48 hrs (morphology observations)” value is “**** (100% of endothelial cells vesicularize in cell shape and look flattened in morphology (indicating disintegration of the cell body))”; the Cell death is on record as 100%.

`CCOC(=O)c1ccc2ncc(S(=O)(=O)c3ccc(OC)cc3)c(-n3ccnn3)c2c1` [Compound 184]: for the setting “10 μm”, the “48 hrs (morphology observations)” value is 0 and the Cell death is listed as 5%.

Take `CCOC(=O)c1ccc2ncc(S(=O)(=O)c3ccc(OC)cc3)c(-n3cnnn3)c2c1` [Compound 185]: where the note is “10 μm”, the “48 hrs (morphology observations)” value was “* (50% or less of cells vesicularize in cell shape)” and the Cell death is 30%.

Regarding `CCCCOc1ccc(S(=O)(=O)c2cnc3ccc(C(=O)OCC)cc3c2-n2cnnn2)cc1` [Compound 186], for the setting “10 μm”, the “48 hrs (morphology observations)” value is “**** (100% of endothelial cells vesicularize in cell shape and look flattened in morphology (indicating disintegration of the cell body))”; the Cell death is 90%.

In the case of `CCCCOc1ccc(S(=O)(=O)c2cnc3ccc(OC(F)(F)F)cc3c2N2CCSCC2)cc1` [Compound 187], under “40 μm”, the “48 hrs (morphology observations)” value came to 0 and the Cell death is recorded as 30%.

Consider `CCCCOc1ccc(S(=O)(=O)c2cnc3ccc(C(=O)NC4C(O)O[C@H](CO)[C@@H](O)[C@@H]4O)cc3c2N2CCCN(C)CC2)cc1` (stereo partly shown) [Compound 193], for which the cytotoxicity at 40 µM was 30%. Besides, where the note is “40 μm”, the “48 hrs (morphology observations)” value is on record as 0.

For `CCCCOc1ccc(S(=O)(=O)c2cnc3ccc(C(=O)OCC)cc3c2N2CC[S+]([O-])CC2)cc1` [Compound 195], for the setting “40 μm”, the “48 hrs (morphology observations)” value was 0.

For `CCCCOc1ccc(S(=O)(=O)c2cnc3ccc(C(=O)OCC)cc3c2N2CCS(=O)(=O)CC2)cc1` [Compound 196], for the setting “40 μm”, the “48 hrs (morphology observations)” value came out at 0 and the Cell death stood at 30%.

As to `CCCCOc1ccc(S(=O)(=O)c2cnc3ccc(OC(F)(F)F)cc3c2N2CC[S+]([O-])CC2)cc1` [Compound 197], under “40 μm”, the “48 hrs (morphology observations)” value was 0 and the Cell death is recorded as 20%.

As for `CCCCOc1ccc(S(=O)(=O)c2cnc3ccc(OC(F)(F)F)cc3c2N2CCS(=O)(=O)CC2)cc1` [Compound 198], where the note is “40 μm”, the “48 hrs (morphology observations)” value was found to be 0 and the Cell death amounted to 30%.

For the molecule `CCCCOc1ccc(S(=O)(=O)c2cnc3ccc(C(=O)N(CC)CC)cc3c2N2CCCN(C)CC2)cc1` [Compound 199], where the note is “40 μm”, the “48 hrs (morphology observations)” value came to 0 and the Cell death turned out to be 30%.

`CCCCOc1ccc(S(=O)(=O)c2cnc3ccc(C(=O)NCCO)cc3c2N2CCCN(C)CC2)cc1` [Compound 200]: the cytotoxicity at 40 µM came out at 30%. The “48 hrs (morphology observations)” value (40 μm) amounted to 0.
